“Also recorded” adds a separate entry of the source. Read-outs that look alike come from different tables or passages of the source.
What was measured:
TDI FGFR3 [1] = biological target: T1, TDI FGFR3 (Homo sapiens, UniProt P22607, Y373C); experiment: cell-based translocation assay (ring spot count, high-content imaging); conditions: for inhibition of FGFR3 activation (in words): cells stably expressing SH2(SH2B)-RrGFP and TDI FGFR3
Method: (§2) PKC412 was prepared as a 6% (w/w) stock in DMSO. Live-cell imaging was performed at 37° C. under humidified conditions in a 5% CO2 incubator.
(§3) For high-content screening, all steps of sample-plate preparation, including compound treatment, fixation and plate washing, were fully automated and were performed using a Bio-Tek EL405uv system (Bio-Tek Instruments, Inc., Winooski, Vt., USA). U2OS cells stably expressing TDI FGFR3 and SI-12-RrGFP were seeded at a density of 4×10^3 cells/well in black 96-well Packard Viewplates, incubated overnight in complete medium at 37° C. in a CO2 incubator, and then transferred to 100 μl serum-free medium containing PKC412 or plant extract. The final DMSO concentration was 1%. After incubating for 1 hour at 37° C. in a CO2 incubator, cells were fixed with 4.5% formaldehyde and cell nuclei were labeled with a 2 μg/ml Hoechst stain solution (Sigma-Aldrich).
(§4) Cell images were automatically obtained using an ArrayScan VTI HCS Reader (Cellomics, Pittsburgh, Pa., USA). Filter sets appropriate for detecting the two fluorophores were used, and a 20×0.4 numerical aperture microscope objective was used for imaging. The Compartmental Analysis BioApplication (Cellomics) was used to analyze the images after optimization of the application's protocol settings. For these analyses, the Compartmental Analysis used the Hoechst-labeled nuclei to identify individual cells, and the nucleus (Circle) and cytoplasmic area (Ring) of the cells were defined by parameter settings in the software. The GFP spots in the Ring region were defined and the spot numbers (Ring Spot Count) and spot intensity (Ring Spot Intensity) were quantified by the software.

TDI FGFR3 [2] = biological target: T1, TDI FGFR3
Method: as §2, §3, §4

[3] = solubility of Pa derivatives compared to Pa; assay type: physicochemical
FGFR3^ACH/ACH mice = experiment: treatment of achondroplasia mice; assay type: in vivo; conditions: 0.09 mg/g/mouse for 7 weeks from 7 days of age
Method: Femurs of mice were dissected and the flesh was removed. The lengths of the femurs were measured using a millimetre-scale calliper ruler.
(§1) FGFR3^ACH/ACH mice beginning at 7 days of age were treated once-daily with 0.2 mg/g/mouse plant active fractions F4 and F4-IS11 by gavage in 200 μl PBS for 4 or 7 weeks. Control wild type littermates (WT) and FGFR3^ACH/ACH mice were treated with vehicle control. In additional studies, mice were treated with 0.09 mg/g/mouse purified Pa or vehicle control in a similar manner. Body weight and body length were measured weekly.
Skeletons were analyzed by […] (Skyscan 1076 system, Bruker, Brussels, Belgium) as described above.

WT mice = experiment: treatment of wild-type mice with Pa; assay type: in vivo; conditions: 0.09 mg/g/mouse for 7 weeks from 7 days of age
Method: as §1
As mentioned above, Pa was identified as an active compound in the A. viridis extract by means of the method set forth above in Example 4. WT and FGFR3^ACH mice at 7 days of age were treated with vehicle (DMSO) or with 0.09 mg/g/mouse Pa for 7 weeks. The body weight of treated mice was measured weekly.

KMS-11 cells = experiment: KMS-11 cell proliferation assay (WST-1); assay type: cell-based, human; conditions: FGFR3-dependent growth (Y373C FGFR3)
Method: Cell proliferation was determined by a colorimetric assay of cell viability based on the cleavage of the tetrazolium salt WST-1 (Roche) by mitochondrial dehydrogenases. Cells were grown in serum-free conditions for 24 h and then were seeded in 96-well plates at a density of 50,000 cells/well in RPMI. Cells were incubated with 1 nM aFGF and 50 μg/ml heparin and various doses of plant extracts in 200 μl RPMI at a final concentration of 1% DMSO. Plates were incubated for 72 h at 37° C., 5% CO2. The WST-1 assay was performed according to the manufacturer's instructions. The absorbance of the formazan dye formed, which correlates with the number of metabolically active cells in the culture, was measured at 450 nm and 690 nm 1 h after adding the reagent. Each experimental condition was performed in triplicate.
The effects of hit 4, hit 4-1, and hit 4-2 were examined on the growth of human myeloma cell line KMS-11 […] expressing TDI FGFR3. KMS-11 cells were stimulated with aFGF/heparin and incubated with DMSO negative control, PKC412 positive control, or 10 μg/ml and 100 μg/ml doses of each tested plant extract. Cell growth was measured as described above.
Fractions were analyzed for their ability to inhibit the FGFR3 activity-dependent growth of human myeloma cell line KMS-11 as described above in Example 3.

T1 sequence (P22607 23-806 Y373C): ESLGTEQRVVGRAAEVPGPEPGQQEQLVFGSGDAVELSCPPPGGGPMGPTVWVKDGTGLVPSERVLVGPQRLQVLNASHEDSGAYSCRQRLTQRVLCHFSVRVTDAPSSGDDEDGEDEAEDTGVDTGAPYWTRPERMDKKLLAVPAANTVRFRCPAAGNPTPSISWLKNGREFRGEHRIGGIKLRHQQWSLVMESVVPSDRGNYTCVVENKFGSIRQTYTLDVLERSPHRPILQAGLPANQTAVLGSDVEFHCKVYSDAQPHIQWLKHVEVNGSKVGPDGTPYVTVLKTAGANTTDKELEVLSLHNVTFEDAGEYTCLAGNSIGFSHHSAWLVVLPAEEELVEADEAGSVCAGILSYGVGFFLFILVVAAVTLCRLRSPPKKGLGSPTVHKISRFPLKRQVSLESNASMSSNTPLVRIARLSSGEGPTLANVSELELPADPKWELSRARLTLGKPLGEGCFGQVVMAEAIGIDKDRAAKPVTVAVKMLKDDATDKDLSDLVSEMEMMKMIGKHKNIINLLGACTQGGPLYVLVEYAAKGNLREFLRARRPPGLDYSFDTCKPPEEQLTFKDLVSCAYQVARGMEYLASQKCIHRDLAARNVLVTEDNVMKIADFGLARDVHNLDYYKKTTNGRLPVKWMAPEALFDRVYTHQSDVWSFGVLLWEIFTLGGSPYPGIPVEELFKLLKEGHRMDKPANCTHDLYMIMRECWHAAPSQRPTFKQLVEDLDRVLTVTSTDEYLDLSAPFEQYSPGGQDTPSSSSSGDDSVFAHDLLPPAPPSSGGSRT

Compound	inhibition of FGFR3 activation (in words) (TDI FGFR3 [1])	other results
CO[C@@H]1[C@H](N(C)C(=O)c2ccccc2)C[C@H]2O[C@]1(C)n1c3ccccc3c3c4c(c5c6ccccc6n2c5c31)C(=O)NC4 [PKC412, reference compound]	–	time to disappearance of punctate GFP signals after treatment (TDI FGFR3 [1]; SH2(SH2B)-RrGFP and TDI FGFR3 expressing cells, not seen with DMSO): ≤ 1 h
Oc1cccc(-c2c3nc(c(-c4cccc(O)c4)c4ccc([nH]4)c(-c4cccc(O)c4)c4nc(c(-c5cccc(O)c5)c5ccc2[nH]5)CC4)C=C3)c1 [temoporfin]	–	inhibition of FGFR3 activation (in words) (TDI FGFR3 [2]): had FGFR3 inhibition activity
HCl-N-pheophorbide a [HCl-N-Pa]	comparable FGFR3 inhibition activities	solubility as compared to Pa [3]: enhanced solubility
Na-pheophorbide a [NA-Pa]	comparable FGFR3 inhibition activities	solubility as compared to Pa [3]: enhanced solubility
Pyropheophorbide a [PyroPa]	inhibit FGFR3 activation; also recorded: stronger than any of the tested photosensitizers	–
chlorophyllin A [reference compound]	had FGFR3 inhibition activity	–
pyropheophorbide-a methyl ester [reference compound]	had FGFR3 inhibition activity	–

Now from value to compound, other results behind:

inhibition of FGFR3 activation (in words) (TDI FGFR3 [1])	Compound	other results
did not	NCC(=O)CCC(=O)O [5-aminolevulinic acid, reference compound]	–
inhibit FGFR3 activation	pheophorbide a [Pa]	body weight vs DMSO-treated mice (FGFR3^ACH/ACH mice): increased body weight; body weight vs DMSO-treated mice (WT mice): increased body weight; inhibition of KMS-11 cell proliferation (KMS-11 cells): inhibited FGFR3-dependent cell proliferation

Reference: patent US11630102B2, “Composition and method for modulating fibroblast growth factor receptor 3 activation” (ACADEMIA SINICA, priority 2017, dated 2023)
